For series [1], the system named is MITF ubiquitination in MKN45 and AGS cells. Put plainly: Endogenous MITF ubiquitination and degradation in GC cells (IP and immunoblotting). The class given is cell-based. The settings on record: 20 µM, MG132 5 µM pretreatment. The protocol: Protein extraction from tissues or cells was performed by lysis buffer (20 mM Tris‐HCl (pH 7.5), 150 mM NaCl, 1 mM EDTA, 1 mM EGTA, 2.5 mM sodium pyrophosphate, 1 mM β‐glycerolphosphate, 1% Triton X‐100) supplemented with 1% phenylmethylsulfonyl fluoride (PMSF; Solarbio, P0100) and protease inhibitor cocktail (Apexbio, K1007) and lysed at 4 °C for 60 min, followed by centrifugation at 12000 g for 15 min at 4 °C. For Immunoblotting, the protein concentration was determined using the Pierce BCA Protein Assay Kit (Thermo Fisher Scientific, A55864). The protein samples were denatured by boiling in SDS‐PAGE loading buffer. For immunoprecipitation, antibodies were incubated with Dynabeads Protein G (Thermo, 10004D) at 4 °C for 4 h. The supernatant was then incubated with magnetic beads conjugated with antibodies or anti‐FLAG‐M2 magnetic beads (Sigma–Aldrich, M8823) at 4 °C overnight. Following incubation, the magnetic beads were washed three times with lysis buffer and then boiled in SDS‐PAGE loading buffer. […]
Plasmids were transfected into HEK293T cells for 24 h or into gastric cells for 36 h. […] After lysing the cells with lysis buffer, the samples were subjected to immunoprecipitation and analyzed by immunoblotting.
In general terms: A western blot detects proteins with antibodies after separation by electrophoresis.

The next series has as its system ICR mice. Put plainly: Acute toxicity at 125 mg/kg, 7-day observation and histopathology. The series is classed as in vivo. The protocol:
For the acute toxic study, 8‐week‐old ICR mice (n = 6 per group) were administered a single intraperitoneal injection of LZQ‐02‐023‐01 at escalating doses. A vehicle‐treated group served as control. Survival was monitored continuously for 24 h postadministration. Additionally, another cohort of ICR mice (n = 5 per group) received a single intraperitoneal dose of LZQ‐02‐023‐01 at 125 mg/kg and were subsequently monitored daily for 7 days for clinical signs of toxicity, behavioral changes, body weight fluctuations, and mortality. At the conclusion of the observation period, animals were euthanized and subjected to a comprehensive gross necropsy. Major organs, including the liver, kidney, heart, lung, and spleen, were harvested for histopathological examination. For the chronic toxic study, 8‐week‐old ICR mice (n = 5 per group) received daily intraperitoneal injections of LZQ‐02‐023‐01 at a therapeutic dose of 40 mg/kg for 14 consecutive days. A vehicle‐treated group was included as a control. Throughout the treatment period, animals were monitored daily for clinical signs of toxicity and weighed every 2 days. At study termination, blood samples were collected for hematological and biochemical analyses. […]

The next series concerns MKN45 xenografts. Put plainly: MKN45 subcutaneous xenograft model. The series is classed as in vivo, BALB/c nude mice. The settings on record: 20 or 40 mg/kg i.p. once daily for 2 weeks. The protocol:
(§1) For the subcutaneous tumor model, 5 × 10⁶ MKN45 cells suspended in 100 µL of sterile PBS were injected subcutaneously into the flanks of BALB/c nude mice. When tumor volumes reached approximately 50 mm^3, mice were randomized into three groups (Vehicle control, LZQ‐02‐023‐01 at 20 mg/kg or 40 mg/kg, n = 10 per group). All treatments were administered via intraperitoneal injection once daily for 14 consecutive days. Tumor volumes were measured every 2 days using calipers and calculated using the formula: volume = [length × (width[2])]/2. Mice were sacrificed on day 24 for endpoint analyses. For genetically engineered mouse models (GEMMs), 25‐week‐old K19‐C2mE mice were randomized into Vehicle control (n = 8) and LZQ‐02‐023‐01 treatment (40 mg/kg, n = 8) groups. Both groups received daily intraperitoneal injections for 28 consecutive days. Similarly, 8‐week‐old Cldn18‐AT mice were induced with tamoxifen (100 mg/kg, T5648, Sigma) and, 2 weeks post‐induction, randomized into Vehicle (n = 6) and LZQ‐02‐023‐01 (40 mg/kg, n = 6) treatment groups. Treatments were administered daily via intraperitoneal injection for 28 days.
(§2) Paraffin sections were initially placed in an oven at 65 °C for 30 min to melt the paraffin. The slides were then immersed in two consecutive xylene baths for 10 min each to dewax the tissue, followed by hydration through a series of graded ethanol solutions. […]

In series [2] the test system is gastric tumors of K19-C2mE mice. Put plainly: K19-C2mE spontaneous gastric cancer mouse model. As to conditions: 40 mg/kg/day i.p., 4 weeks. The class given is in vivo. The protocol: as §1, §2
The nature of series [3]: Body weight and organ toxicity in treated tumor-bearing mice. The series is classed as in vivo. The settings on record: K19-C2mE and Cldn18-AT mice. Here is the method:
as §1

Where [4] appears, read: MKN45 xenograft, 20 or 40 mg/kg/day.

The structures appear in SMILES notation.

Here are results for one compound from publication PMC12752606, “METTL10‐Mediated PIAS3 Methylation Links Purine Metabolism to Gastric Cancer Progression” (Advanced Science, 2025).

As for `Cc1ccc(Nc2ncc3c(n2)N(C)C(=O)N(c2cccc(N)c2)C3)cn1` [LZQ-02-023-01, Three‐(3‐aminophenyl)‐1‐methyl‐7‐((6‐methylpyridin‐3‐yl)amino)‐3,4‐dihydropyrimido [4,5‐d] pyrimidin‐2 (1H)‐one], in series [1], the “PIAS3-mediated ubiquitination and degradation of MITF, GC cells” value was “significantly promoted”. In addition, the “Signs of overt toxicity” value in the series with ICR mice (7 days) is recorded as “did not observe any signs of overt toxicity”. Besides, the “Histopathological analysis of major organs” value in the series on ICR mice (end of 7-day period) is “no apparent tissue damage”. In the series with MKN45 xenografts, the “Growth of xenografts derived from MKN45 cells” value was “significant reduction”; the “Ki-67 expression, PIAS3-K442 methylation and MITF in xenografts” value is “significantly decreased”. For the same compound, in series [2], the “Pathologic grade of lesions and proliferation (H&E, Ki-67)” value is “lower pathologic grade lesions and proliferation”; the “Tumor burden and progression” value was “significantly reduce tumor burden and progression”. Also, the Spleen weight entry in series [3] (40 mg/kg/day) was “reduction”. Also, in series [3] (setting [4]), the Body weight loss entry was “did not cause substantial weight loss” and the “Discernible toxic effects on other organs” value is on record as “did not cause”.
